Assay results reported in US10597388B2, “Pyridazinone herbicides” (FMC CORPORATION, priority 2014, dated 2020).

Assays:
Format in all cases: in vivo
[1] = tested on: barnyardgrass (Echinochloa crus-galli); experiment: Test A greenhouse herbicide test, pre- and postemergence
Summary of the method: (§1)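 Visual injury ratings, 0 (no effect) to 100 (complete control), versus untreated plants after roughly 10 d in a greenhouse. Compounds, formulated in a surfactant-containing non-phytotoxic solvent, were sprayed on loam–sand soil after sowing (pre) or on one- to two-leaf plants 2–10 cm tall (post).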

[2] = tested on: foxtail, giant (giant foxtail, Setaria faberii); experiment: as above
Summary of the method: as §1

kochia (Kochia scoparia) = experiment: as above
Summary of the method: as §1

[3] = tested on: pigweed (Amaranthus retroflexus); experiment: as above
Summary of the method: as §1

[4] = tested on: ragweed (common ragweed, Ambrosia elatior); experiment: as above
Summary of the method: as §1

[5] = tested on: ryegrass, Italian (Italian ryegrass, Lolium multiflorum); experiment: as above
Summary of the method: as §1

[6] = tested on: wheat (Triticum aestivum); experiment: as above; conditions: Postemergence; for Plant response rating, Wheat: 125 g ai/ha, 0 to 100 scale where 0 is no effect and 100 is complete control; for Wheat plant response rating: 500 g ai/ha, 0 to 100 scale, 0 is no effect, 100 is complete control
Summary of the method: as §1

[7] = tested on: blackgrass (Alopecurus myosuroides); experiment: Test A greenhouse herbicide test, postemergence; conditions: for Plant response rating, Blackgrass: 125 g ai/ha, visual rating after approx. 10 d, 0 to 100 scale (0 no effect, 100 complete control); for Blackgrass plant response rating: 500 g ai/ha, 0 to 100 scale, 0 is no effect, 100 is complete control
Summary of the method: (§2)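 Scores are visual injury ratings from 0 (no effect) to 100 (complete control) versus untreated plants, taken roughly 10 d after treatment in the greenhouse. Treatment was postemergence, on one- to two-leaf plants 2–10 cm high growing in a loam soil/sand mix.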

[8] = tested on: galium (catchweed bedstraw, Galium aparine); experiment: Test A greenhouse herbicide test, postemergence; conditions: for Plant response rating, Galium: 125 g ai/ha, visual rating after approx. 10 d, 0 to 100 scale (0 no effect, 100 complete control); for Galium plant response rating: 500 g ai/ha, 0 to 100 scale, 0 is no effect, 100 is complete control
Summary of the method: as §2

corn (Zea mays) = experiment: Test C greenhouse herbicide test, pre- and postemergence
Summary of the method: (§3)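 Greenhouse pots; pre-em on seeded loam:sand blend, post-em on 2–18 cm plants (1–4 leaf) in sphagnum peat/vermiculite medium. Formulation: non-phytotoxic solvent + surfactant. Read-out: visual % control (0–100) vs controls at 13–15 d.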

[9] = tested on: ryegrass, Italian (Italian ryegrass, Lolium multiflorum); experiment: as above
Summary of the method: as §3

[10] = Postemergence, 125 g ai/ha, visual rating after approx. 10 d, 0 to 100 scale (0 no effect, 100 complete control)
[11] = Postemergence, 500 g ai/ha, 0 to 100 scale, 0 is no effect, 100 is complete control
[12] = Preemergence, 125 g ai/ha, 0 to 100 scale where 0 is no effect and 100 is complete control
[13] = Preemergence, 500 g ai/ha, 0 to 100 scale, 0 no effect, 100 complete control
[14] = Postemergence, 125 g ai/ha, 0 to 100 scale where 0 is no effect and 100 is complete control
[15] = Postemergence, 31 g ai/ha, 0 to 100 scale (0 no effect, 100 complete control)
[16] = Postemergence, 125 g ai/ha, scale 0 to 100, 0 is no effect, 100 is complete control
[17] = Postemergence, 250 g ai/ha, scale 0 to 100, 0 no effect, 100 complete control, 13 to 15 d
[18] = postemergence, 62 g ai/ha, scale 0 to 100, 0 no effect, 100 complete control
[19] = Preemergence, 31 g ai/ha, scale 0 to 100, 0 is no effect, 100 is complete control
[20] = Preemergence, 62 g ai/ha, scale 0 to 100, 0 is no effect, 100 is complete control
[21] = Preemergence, 125 g ai/ha, scale 0 to 100, 0 is no effect, 100 is complete control
[22] = Preemergence, 250 g ai/ha, scale 0 to 100 (0 no effect, 100 complete control)

In the case of `COc1nn(C)c(=O)c(-c2c(C)sc3ccccc23)c1O` [Compound 33], the “Plant response rating, Barnyardgrass” value [1, 10] is reported as 40, the “Barnyardgrass plant response rating” value [1, 11] is reported as 90 and the “Barnyardgrass plant response rating” value [1, 12] is reported as 20. The “Plant response rating, Barnyardgrass” value [1, 13] was 90, the “Plant response rating, Foxtail, Giant” value [2, 10] was 40 and the “Foxtail, Giant plant response rating” value [2, 11] was 90. The “Foxtail, Giant plant response rating” value [2, 12] was 50, the “Plant response rating, Foxtail, Giant” value [2, 13] was 70 and the “Plant response rating, Kochia” value (kochia (Kochia scoparia); [10]) was 90. The “Kochia plant response rating” value (kochia (Kochia scoparia); [11]) was 100, the “Kochia plant response rating” value (kochia (Kochia scoparia); [12]) was 30 and the “Plant response rating, Kochia” value (kochia (Kochia scoparia); [13]) was 80. The “Plant response rating, Pigweed” value [3, 10] was 40, the “Pigweed plant response rating” value [3, 11] was 70 and the “Pigweed plant response rating” value [3, 12] was 20. The “Plant response rating, Pigweed” value [3, 13] was 20, the “Plant response rating, Ragweed” value [4, 10] was 90 and the “Ragweed plant response rating” value [4, 11] was 90. The “Ragweed plant response rating” value [4, 12] was 80, the “Plant response rating, Ragweed” value [4, 13] was 100 and the “Plant response rating, Ryegrass, Italian” value [5, 14] was 50. For the same compound, the “Ryegrass, Italian plant response rating” value [5, 11] was 70, the “Ryegrass, Italian plant response rating” value [5, 12] was 20 and the “Plant response rating, Ryegrass, Italian” value [5, 13] was 60. For the same compound, the “Plant response rating, Wheat” value [6] was 0, the “Wheat plant response rating” value [6] was 0 and the “Plant response rating, Blackgrass” value [7] was 10. The “Blackgrass plant response rating” value [7] was 40, the “Plant response rating, Galium” value [8] was 90 and the “Galium plant response rating” value [8] was 100. For the same compound, the “Corn plant response rating” value (corn (Zea mays); [15]) was 0, the “Plant response rating, Corn” value (corn (Zea mays); [16]) was 5 and the “Plant response rating, Corn” value (corn (Zea mays); [17]) was 20. For the same compound, the “Corn plant response rating” value (corn (Zea mays); [18]) was 5, the “Ryegrass, Italian plant response rating” value [9, 15] was 30 and the “Plant response rating, Ryegrass, Italian” value [9, 16] was 70. For the same compound, the “Plant response rating, Ryegrass, Italian” value [9, 17] was 75 and the “Ryegrass, Italian plant response rating” value [9, 18] was 45.
`COc1nn(C)c(=O)c(-c2c(C)ccc3ccccc23)c1OC(=O)OC(C)C` [Compound 36] was tested, and the “Plant response rating, Barnyardgrass” value [1, 10] was 50, the “Barnyardgrass plant response rating” value [1, 11] was 80 and the “Barnyardgrass plant response rating” value [1, 12] was 0. For the same compound, the “Plant response rating, Barnyardgrass” value [1, 13] was 30, the “Plant response rating, Foxtail, Giant” value [2, 10] was 80 and the “Foxtail, Giant plant response rating” value [2, 11] was 90. For the same compound, the “Foxtail, Giant plant response rating” value [2, 12] was 80, the “Plant response rating, Foxtail, Giant” value [2, 13] was 90 and the “Plant response rating, Kochia” value (kochia (Kochia scoparia); [10]) was 90. The “Kochia plant response rating” value (kochia (Kochia scoparia); [11]) was 100, the “Kochia plant response rating” value (kochia (Kochia scoparia); [12]) was 10 and the “Plant response rating, Kochia” value (kochia (Kochia scoparia); [13]) was 80. For the same compound, the “Plant response rating, Pigweed” value [3, 10] was 90, the “Pigweed plant response rating” value [3, 11] was 90 and the “Pigweed plant response rating” value [3, 12] was 100. For the same compound, the “Plant response rating, Pigweed” value [3, 13] was 100, the “Plant response rating, Ragweed” value [4, 10] was 90 and the “Ragweed plant response rating” value [4, 11] was 90. The “Ragweed plant response rating” value [4, 12] was 80, the “Plant response rating, Ragweed” value [4, 13] was 90 and the “Plant response rating, Ryegrass, Italian” value [5, 14] was 70. For the same compound, the “Ryegrass, Italian plant response rating” value [5, 11] was 80, the “Ryegrass, Italian plant response rating” value [5, 12] was 70 and the “Plant response rating, Ryegrass, Italian” value [5, 13] was 70. The “Plant response rating, Wheat” value [6] was 20, the “Wheat plant response rating” value [6] was 30 and the “Plant response rating, Blackgrass” value [7] was 60. For the same compound, the “Blackgrass plant response rating” value [7] was 80, the “Plant response rating, Galium” value [8] was 100 and the “Galium plant response rating” value [8] was 100. The “Corn plant response rating” value (corn (Zea mays); [15]) was 0, the “Plant response rating, Corn” value (corn (Zea mays); [16]) was 5 and the “Plant response rating, Corn” value (corn (Zea mays); [17]) was 5. For the same compound, the “Plant response rating, Corn” value (corn (Zea mays); [19]) was 0, the “Plant response rating, Corn” value (corn (Zea mays); [20]) was 0 and the “Plant response rating, Corn” value (corn (Zea mays); [21]) was 0. The “Corn plant response rating” value (corn (Zea mays); [22]) was 0, the “Corn plant response rating” value (corn (Zea mays); [18]) was 0 and the “Ryegrass, Italian plant response rating” value [9, 15] was 55. For the same compound, the “Plant response rating, Ryegrass, Italian” value [9, 16] was 60, the “Plant response rating, Ryegrass, Italian” value [9, 17] was 80 and the “Plant response rating, Ryegrass, Italian” value [9, 19] was 30. For the same compound, the “Plant response rating, Ryegrass, Italian” value [9, 20] was 30, the “Plant response rating, Ryegrass, Italian” value [9, 21] was 35 and the “Ryegrass, Italian plant response rating” value [9, 22] was 85. For the same compound, the “Ryegrass, Italian plant response rating” value [9, 18] was 60.
